From PubChem BioAssay (NCI)
Values joined by “and” are separate entries in the source; they are usually repeats but may differ in a detail not shown here. Equal entries are not always repeated.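 1) Cells in 96-well plates. 2) Compound, 48 h, 5 concentrations. 3) Linear interpolation between surrounding doses. 4) Unreached endpoint = highest concentration. GI50 = concentration required for 50% inhibition of growth. TGI: total growth inhibition.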

Experiments:
Assay in all cases: NCI tumour cell line growth inhibition, 48 h
DLD-1 colon = test system: DLD-1 colon
LOX IMVI melanoma = test system: LOX IMVI melanoma
CCRF-CEM leukemia = test system: CCRF-CEM leukemia
A549 NSCLC = test system: A549 NSCLC
HOP-62 NSCLC = test system: HOP-62 NSCLC
PC-3 prostate = test system: PC-3 prostate
MDA-MB-231 breast = test system: MDA-MB-231 breast
NCI/ADR-RES ovarian = test system: NCI/ADR-RES ovarian
IGROV1 ovarian = test system: IGROV1 ovarian
KM20L2 colon = test system: KM20L2 colon

Row | SMILES | TGI (DLD-1 colon) | TGI (LOX IMVI melanoma) | TGI (CCRF-CEM leukemia) | TGI (A549 NSCLC) | TGI (HOP-62 NSCLC) | GI50 (PC-3 prostate) | TGI (PC-3 prostate) | GI50 (LOX IMVI melanoma) | GI50 (CCRF-CEM leukemia) | GI50 (A549 NSCLC) | GI50 (MDA-MB-231 breast) | TGI (MDA-MB-231 breast) | GI50 (HOP-62 NSCLC) | GI50 (NCI/ADR-RES ovarian) | TGI (NCI/ADR-RES ovarian) | GI50 (IGROV1 ovarian) | TGI (IGROV1 ovarian) | TGI (KM20L2 colon)
1 | CC(=O)Nc1ccc(C(=O)N2N=C(C)/C(=C/c3cccc([N+](=O)[O-])c3)C2=O)cc1 | > 100 µM | > 100 µM | > 100 µM | > 100 µM | > 100 µM |  |  |  |  |  |  |  |  |  |  |  |  | 
2 | COc1cccc(C2C(C#N)=C(N)Oc3c2ccc2ccccc32)c1 (centres undefined) |  | 10.8 µM | 18.2 µM | 17.6 µM | 16.2 µM | 0.0119 µM | 15.5 µM | < 0.0164 µM | 0.0353 µM | 0.0232 µM | 0.0433 µM | 16.3 µM | 0.0203 µM | < 0.01 µM | 0.391 µM | 0.0205 µM | 14.3 µM | 
3 | O=C1CCC(N2C(=O)c3cccc(NCCCC4CCN(CCNC(=O)c5cc6c(o5)C(=O)c5ccccc5C6=O)CC4)c3C2=O)C(=O)N1 (centres undefined) |  | 1.13 µM | > 71.6 µM | 0.471 µM | 2.86 µM | 0.976 µM | > 76.4 µM | 0.288 µM | 2.27 µM | 0.189 µM | 0.67 µM | 6.83 µM | 1.44 µM | 2.89 µM | 14.7 µM | 0.576 µM | 2.3 µM | 
4 | CCN(CC)C(=S)SSC(=S)N(CC)CC |  | 31.2 µM and 29.9 µM | 27.6 µM | > 71.9 µM and 146 µM | > 67.9 µM and 112 µM | 15.7 µM and 23.2 µM | 41.2 µM and 72 µM | 14.4 µM and 12.8 µM | 10.3 µM | 25 µM and 33 µM | 16.1 µM and 16.7 µM | 32.5 µM and 34.3 µM | 33.9 µM and 33.7 µM | 18.1 µM and 17.6 µM | 39.9 µM and 37.9 µM | 142 µM | 543 µM | 
5 | O=C1CSC(c2ccccc2O)N1c1nnc(Cn2ccnc2)o1 (centres undefined) |  | 24.8 µM | 52.9 µM | > 100 µM | > 100 µM | 6.2 µM | 30.4 µM | 6.58 µM | 4.37 µM | 35.5 µM | 6.25 µM | 71.4 µM | 17.6 µM | 3.18 µM | 29.6 µM | 16 µM | 37 µM | 
6 | COCCOCOC(C)(C)[C@H](CCOC(C)=O)O[Si](c1ccccc1)(c1ccccc1)C(C)(C)C | > 100 µM | 27.6 µM | 23.7 µM | > 100 µM | 66.7 µM |  |  |  |  |  |  |  |  |  |  |  | > 100 µM | > 100 µM
7 | O=c1cccc(C#CC#CCCCO)o1 |  | > 27.9 µM | > 100 µM | > 58.8 µM | 12.2 µM | 3.13 µM | > 22.8 µM | 2.51 µM | 5.73 µM | 17.8 µM | 1.99 µM | 4.82 µM | 6.26 µM | 9.47 µM | > 44.2 µM | 2.65 µM | > 22.1 µM | 
8 | C=CCCCOC1[C@H](OCc2ccccc2)C(OCc2ccccc2)C(OC)O[C@@H]1CNC(=O)c1cccc(I)c1 (some centres undefined) |  | > 100 µM | > 100 µM | > 100 µM | > 100 µM | 2.19 µM | > 100 µM | 2.81 µM | 3.55 µM | 8.17 µM | 8.34 µM | > 100 µM | > 100 µM | 5.26 µM | > 100 µM | 17.7 µM | > 100 µM | 
9 | C#CCSc1nc(N)c2ncn(C3OC(COP(=O)(O)O)C(O)C3O)c2n1 (centres undefined) | > 239 µM | > 239 µM | > 239 µM | > 239 µM | > 239 µM |  |  |  |  |  |  |  |  |  |  |  | > 239 µM | > 239 µM
10 | O=C(NN1C(=O)CSC1c1ccc(F)cc1)C(O)c1ccccc1 (centres undefined) |  | > 100 µM | > 100 µM | > 100 µM | > 100 µM | 76.8 µM | > 100 µM | > 100 µM | > 100 µM | 90.9 µM | 67.6 µM | > 100 µM | > 100 µM | > 100 µM | > 100 µM | > 100 µM | > 100 µM | 
11 | O=C(O)COc1ccc(C(=O)/C(SS/C(C(=O)c2ccc(OCC(=O)O)c(Cl)c2Cl)=C2\C=C(c3ccc(Br)cc3)SS2)=C2/C=C(c3ccc(Br)cc3)SS2)c(Cl)c1Cl | > 63.2 µM | 13.7 µM | 17 µM | > 100 µM | 54.1 µM |  |  |  |  |  |  |  |  |  |  |  | 23.1 µM | > 100 µM
12 | COc1cccc(CC(C)=C(c2ccc(OCCCN(C)C)cc2)c2ccc(OCCCN(C)C)cc2)c1 |  | 0.807 µM | 1.13 µM | 1.44 µM | 1.1 µM | 0.693 µM | 2.46 µM | 0.428 µM | 0.463 µM | 0.557 µM | 0.457 µM | 0.869 µM | 0.501 µM | 0.548 µM | 1.28 µM | 0.549 µM | 1.19 µM | 
13 | C=C1CC[C@@H]2[C@](C)(COC(C)=O)[C@H](OC(C)=O)CC[C@@]2(C)[C@@H]1CC(Nc1ccc(S(=O)(=O)Nc2nccs2)cc1)C1=CCOC1=O (some centres undefined) |  | 3.31 µM | 6.76 µM | 11.2 µM | 27.5 µM | 7.74 µM | 21.5 µM | 1.59 µM | 2.28 µM | 3.67 µM | 3.31 µM | 8.25 µM | 13.8 µM | 2.97 µM | 12.7 µM | 4.54 µM | 17.1 µM | 
14 | COc1ccc(Oc2ccccc2NC(=O)CNC(=O)c2cccc3ccccc23)cc1 |  | > 25 µM | > 25 µM | > 25 µM | > 25 µM | 1.06 µM | > 25 µM | 1.34 µM | 0.904 µM | 1.25 µM | 2.25 µM | > 25 µM | 0.717 µM | 0.427 µM | > 25 µM | 1.57 µM | > 25 µM | 
15 | COc1cc(/C=C/[N+](=O)[O-])cc(OC)c1OC |  | 2.91 µM | 15.4 µM | 19.4 µM | 13.6 µM | 3.25 µM | 10.6 µM | 1.39 µM | 3.35 µM | 4.42 µM | 1.87 µM | 4.86 µM | 3.34 µM | 3.43 µM | 36.7 µM | 2.45 µM | 7.61 µM | 
16 | O=C(CCc1nc(=S)[nH][nH]1)Nc1cccc(C(F)(F)F)c1 | > 100 µM | > 100 µM | > 100 µM | > 100 µM | > 100 µM |  |  |  |  |  |  |  |  |  |  |  | > 100 µM | > 100 µM
